Source: patent US20230265151A1, “GIP/GLP1 CO-AGONIST COMPOUNDS” (priority 2020, published 2023)
Where two headings read alike, the source gives them in different places.

Columns and labels:
hGCGR = target: T1, hGCGR (Homo sapiens, UniProt P47871); experiment: Functional cAMP formation (HTRF) in HEK-293 clonal cells expressing hGCGR, 0.1% bovine casein, without or with 1.0% human serum albumin; format: cell-based; details: cAMP, incubated at 37° C., 0.1% bovine casein (no human serum albumin), geometric mean
T1 construct: expressed in transfected cells
T1 sequence (P47871 26-477): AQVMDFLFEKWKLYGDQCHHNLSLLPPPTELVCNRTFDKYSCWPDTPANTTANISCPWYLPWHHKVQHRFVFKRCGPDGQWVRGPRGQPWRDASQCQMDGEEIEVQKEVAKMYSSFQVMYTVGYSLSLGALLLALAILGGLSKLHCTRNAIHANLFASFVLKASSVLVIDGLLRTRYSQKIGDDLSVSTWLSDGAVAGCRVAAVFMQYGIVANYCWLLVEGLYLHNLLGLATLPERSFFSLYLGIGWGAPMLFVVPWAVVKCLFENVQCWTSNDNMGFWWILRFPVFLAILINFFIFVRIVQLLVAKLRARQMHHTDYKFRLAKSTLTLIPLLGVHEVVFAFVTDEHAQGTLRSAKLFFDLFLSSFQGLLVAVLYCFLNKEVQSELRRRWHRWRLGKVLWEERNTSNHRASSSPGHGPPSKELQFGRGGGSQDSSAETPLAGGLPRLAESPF
In short: (§1)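 Cells were stimulated with peptide for 30 min at 37° C, then intracellular cAMP was measured by competitive HTRF (665/620 nm ratio) and converted to nM using a cAMP standard curve. Relative EC50 and Emax came from four-parameter logistic fits of percent maximal response against peptide concentration.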

hGIPR = target: T2, hGIPR (Homo sapiens, UniProt P48546); experiment: Functional cAMP formation (HTRF) in HEK-293 clonal cells expressing hGIPR, 0.1% bovine casein, without or with 1.0% human serum albumin; format: cell-based; details: for Emax: 37° C., 0.1% bovine casein, arithmetic mean; for EC50: cAMP, incubated at 37° C., 0.1% bovine casein (no human serum albumin), geometric mean
T2 construct: expressed in transfected cells
T2 sequence (P48546 22-466): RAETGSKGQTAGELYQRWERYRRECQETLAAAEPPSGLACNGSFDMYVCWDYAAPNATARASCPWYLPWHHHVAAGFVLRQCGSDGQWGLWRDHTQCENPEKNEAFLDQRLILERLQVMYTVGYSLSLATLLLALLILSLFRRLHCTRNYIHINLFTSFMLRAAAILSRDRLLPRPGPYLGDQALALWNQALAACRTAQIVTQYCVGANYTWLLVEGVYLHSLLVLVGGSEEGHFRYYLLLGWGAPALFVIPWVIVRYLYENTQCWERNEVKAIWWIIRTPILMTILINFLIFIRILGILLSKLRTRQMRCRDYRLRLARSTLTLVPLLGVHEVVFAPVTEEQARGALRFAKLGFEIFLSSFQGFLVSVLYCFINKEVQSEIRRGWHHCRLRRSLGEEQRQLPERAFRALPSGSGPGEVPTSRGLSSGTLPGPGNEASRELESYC
In short: as §1

[1] = read-out: hGCGR EC50, nM (SEM, n)
[2] = HEK293, percent of maximal response to GIP(1-42)NH2, read-out: hGIPR Emax, % ± SEM
[3] = read-out: hGIPR EC50, nM (SEM, n)

Compound | EC50 (hGCGR; [1]) [nM] | Emax (hGIPR; [2]) [%] | EC50 (hGIPR; [3]) [nM] | EC50 (hGCGR; hGCGR EC50, nM (SEM, n)) [nM] | Emax (hGIPR; HEK293, read-out: hGIPR Emax, % ± SEM, percent of maximal response to GIP(1-42)NH2) [%] | EC50 (hGIPR; hGIPR EC50, nM (SEM, n)) [nM]
CC[C@H](C)[C@H](NC(=O)[C@H](CC(C)C)NC(=O)[C@](C)(Cc1ccc(O)cc1)NC(=O)[C@@H](CCC(=O)O)NC(=O)[C@@H](NC(=O)[C@H](Cc1ccccc1)NC(=O)[C@H](CCC(=O)O)NC(=O)C(C)(C)NC(=O)[C@H](CCC(N)=O)NC(=O)[C@H](C)NC(=O)[C@H](CCCCNC(=O)COCCOCCNC(=O)COCCOCCNC(=O)CC[C@H](NC(=O)CCCCCCCCCCCCC(=O)O)C(=O)O)NC(=O)[C@H](CCCN)NC(=O)[C@H](CC(=O)O)NC(=O)[C@H](CC(C)C)NC(=O)[C@](C)(CC(C)C)NC(=O)[C@@H](NC(=O)[C@H](CO)NC(=O)[C@H](Cc1ccsc1)NC(=O)[C@H](CC(=O)O)NC(=O)[C@H](CO)NC(=O)[C@@H](NC(=O)[C@](C)(Cc1ccccc1F)NC(=O)[C@@H](NC(=O)CNC(=O)[C@H](CCC(=O)O)NC(=O)C(C)(C)NC(=O)[C@@H](N)Cc1ccc(O)cc1)[C@@H](C)O)[C@@H](C)O)[C@@H](C)CC)[C@@H](C)CC)C(=O)N[C@@H](CCC(=O)O)C(=O)NCC(=O)NCC(=O)N[C@@H](CCCCNC(=O)COCCOCCNC(=O)COCCOCCNC(=O)CC[C@H](NC(=O)CCCCCCCCCCCCC(=O)O)C(=O)O)C(=O)N[C@@H](CO)C(=O)N[C@@H](CO)C(=O)NCC(=O)N[C@@H](C)C(=O)N1CCC[C@H]1C(=O)N1CCC[C@H]1C(=O)N1CCC[C@H]1C(=O)N[C@@H](CO)C(N)=O [Example 146] | > 9950 | 76.5 | 0.0198 |  |  | 
CC[C@H](C)[C@H](NC(=O)[C@H](CC(C)C)NC(=O)[C@](C)(Cc1ccc(O)cc1)NC(=O)[C@@H](CCC(=O)O)NC(=O)[C@@H](NC(=O)[C@H](Cc1ccccc1)NC(=O)[C@H](CCC(=O)O)NC(=O)C(C)(C)NC(=O)[C@H](CCC(N)=O)NC(=O)[C@H](C)NC(=O)[C@H](CCCCNC(=O)COCCOCCNC(=O)COCCOCCNC(=O)CC[C@H](NC(=O)CCCc1ccc(C(C)(C)C)cc1)C(=O)O)NC(=O)[C@H](CCCN)NC(=O)[C@H](CC(=O)O)NC(=O)[C@H](CC(C)C)NC(=O)[C@](C)(CC(C)C)NC(=O)[C@@H](NC(=O)C(C)(C)NC(=O)[C@@H](NC(=O)[C@H](CC(=O)O)NC(=O)[C@H](CO)NC(=O)[C@@H](NC(=O)[C@](C)(Cc1ccccc1)NC(=O)[C@@H](NC(=O)CNC(=O)[C@H](CCC(=O)O)NC(=O)C(C)(C)NC(=O)[C@@H](N)Cc1ccc(O)cc1)[C@@H](C)O)[C@@H](C)O)C(C)C)[C@@H](C)CC)[C@@H](C)CC)C(=O)N[C@@H](CCC(=O)O)C(=O)NCC(=O)NCC(=O)N[C@@H](CCCCNC(=O)COCCOCCNC(=O)COCCOCCNC(=O)CC[C@H](NC(=O)CCCc1ccc(C(C)(C)C)cc1)C(=O)O)C(=O)N[C@@H](CO)C(=O)N[C@@H](CO)C(=O)NCC(=O)N[C@@H](C)C(=O)N1CCC[C@H]1C(=O)N1CCC[C@H]1C(=O)N1CCC[C@H]1C(=O)N[C@@H](CO)C(N)=O [Example 178] | > 9950 | 105 | 0.11 |  |  | 
CCCCCCCCCCCC(=O)N[C@@H](CCC(=O)NCCOCCOCC(=O)NCCOCCOCC(=O)NCCCC[C@H](NC(=O)[C@H](CCCN)NC(=O)[C@H](CC(=O)O)NC(=O)[C@H](CC(C)C)NC(=O)[C@](C)(CC(C)C)NC(=O)[C@@H](NC(=O)[C@H](CO)NC(=O)[C@H](CCCCNC(=O)COCCOCCNC(=O)COCCOCCNC(=O)CC[C@H](NC(=O)CCCCCCCCCCC)C(=O)O)NC(=O)[C@H](CC(=O)O)NC(=O)[C@H](CO)NC(=O)[C@@H](NC(=O)[C@](C)(Cc1ccccc1F)NC(=O)[C@@H](NC(=O)CNC(=O)[C@H](CCC(=O)O)NC(=O)C(C)(C)NC(=O)[C@@H](N)Cc1ccc(O)cc1)[C@@H](C)O)[C@@H](C)O)[C@@H](C)CC)C(=O)N[C@@H](C)C(=O)N[C@@H](CCC(N)=O)C(=O)NC(C)(C)C(=O)N[C@@H](CCC(=O)O)C(=O)N[C@@H](Cc1ccccc1)C(=O)N[C@H](C(=O)N[C@H](CCC(=O)O)C(=O)N[C@@](C)(Cc1ccc(O)cc1)C(=O)N[C@@H](CC(C)C)C(=O)N[C@H](C(=O)N[C@@H](CCC(=O)O)C(=O)NCC(=O)NCC(=O)N1CCC[C@H]1C(=O)N[C@@H](CO)C(=O)N[C@@H](CO)C(=O)NCC(=O)N[C@@H](C)C(=O)N1CCC[C@H]1C(=O)N1CCC[C@H]1C(=O)N1CCC[C@H]1C(=O)N[C@@H](CO)C(N)=O)[C@@H](C)CC)[C@@H](C)CC)C(=O)O [Example 136] | > 9950 | 97.4 ± 4.23 |  |  |  | 
CC[C@H](C)[C@H](NC(=O)[C@H](CC(C)C)NC(=O)[C@](C)(Cc1ccc(O)cc1)NC(=O)[C@H](CCCCNC(=O)[C@@H](N)CCCCNC(=O)[C@@H](N)CCCCNC(=O)CC[C@H](NC(=O)CCCCCCCCCCCCC(=O)O)C(=O)O)NC(=O)[C@@H](NC(=O)[C@H](Cc1ccccc1)NC(=O)[C@H](CCC(=O)O)NC(=O)C(C)(C)NC(=O)[C@H](CCC(N)=O)NC(=O)[C@H](C)NC(=O)[C@H](CCCCNC(=O)[C@@H](N)CCCCNC(=O)[C@@H](N)CCCCNC(=O)CC[C@H](NC(=O)CCCCCCCCCCCCC(=O)O)C(=O)O)NC(=O)[C@H](CCCN)NC(=O)[C@H](CC(=O)O)NC(=O)[C@H](CC(C)C)NC(=O)[C@](C)(CC(C)C)NC(=O)[C@@H](NC(=O)[C@H](CO)NC(=O)[C@H](Cc1ccncc1)NC(=O)[C@H](CC(=O)O)NC(=O)[C@H](CO)NC(=O)[C@@H](NC(=O)[C@](C)(Cc1ccccc1F)NC(=O)[C@@H](NC(=O)CNC(=O)[C@H](CCC(=O)O)NC(=O)C(C)(C)NC(=O)[C@@H](N)Cc1ccc(O)cc1)[C@@H](C)O)[C@@H](C)O)[C@@H](C)CC)[C@@H](C)CC)C(=O)N[C@@H](CCC(=O)O)C(=O)NCC(=O)NCC(=O)N1CCC[C@H]1C(=O)N[C@@H](CO)C(=O)N[C@@H](CO)C(=O)NCC(=O)N[C@@H](C)C(=O)N1CCC[C@H]1C(=O)N1CCC[C@H]1C(=O)N1CCC[C@H]1C(=O)N[C@@H](CO)C(N)=O [Example 162] |  |  |  | > 9950 | 89.7 | 0.022
CC[C@H](C)[C@H](NC(=O)[C@H](CC(C)C)NC(=O)[C@](C)(Cc1ccc(O)cc1)NC(=O)[C@@H](CCC(=O)O)NC(=O)[C@@H](NC(=O)[C@H](Cc1ccccc1)NC(=O)[C@H](CCC(=O)O)NC(=O)C(C)(C)NC(=O)[C@H](CCC(N)=O)NC(=O)[C@H](C)NC(=O)[C@H](CCCCNC(=O)COCCOCCNC(=O)COCCOCCNC(=O)CC[C@H](NC(=O)CCCc1ccc(C(C)(C)C)cc1)C(=O)O)NC(=O)[C@H](CCCN)NC(=O)[C@H](CC(=O)O)NC(=O)[C@H](CC(C)C)NC(=O)[C@](C)(CC(C)C)NC(=O)[C@@H](NC(=O)[C@H](CO)NC(=O)[C@H](Cc1ccncc1)NC(=O)[C@H](CC(=O)O)NC(=O)[C@H](CO)NC(=O)[C@@H](NC(=O)[C@](C)(Cc1ccccc1F)NC(=O)[C@@H](NC(=O)CNC(=O)[C@H](CCC(=O)O)NC(=O)C(C)(C)NC(=O)[C@@H](N)Cc1ccc(O)cc1)[C@@H](C)O)[C@@H](C)O)[C@@H](C)CC)[C@@H](C)CC)C(=O)N[C@@H](CCC(=O)O)C(=O)NCC(=O)N[C@@H](CCCCNC(=O)COCCOCCNC(=O)COCCOCCNC(=O)CC[C@H](NC(=O)CCCc1ccc(C(C)(C)C)cc1)C(=O)O)C(=O)N1CCC[C@H]1C(=O)N[C@@H](CO)C(=O)N[C@@H](CO)C(=O)NCC(=O)N[C@@H](C)C(=O)N1CCC[C@H]1C(=O)N1CCC[C@H]1C(=O)N1CCC[C@H]1C(=O)N[C@@H](CO)C(N)=O [Example 134] | > 9950 |  | 0.0238 |  |  | 
